The source of these data is article PMC5750238 (2018).

The subject of assay [1] is Mango construct (RNA, aptamer) GGGAGAUCGUCCUAAGCGCUUUCGAGCGUUUAGCCUGGGUCGCGAAGGGACGGUGCGGAGAGGAGAGCGACUCAGGGAUGGUGAAGCCUCCACGCCAUCGACGGUCUCCCGAUACUCAUCGCGACUGAAGGAGGCACGGUCGGCAUUGUACUUCGGUACGAUGCGCAAGCGACUUCGGUCGUUUGCCGAUGGGUAUC
Nature of the assay: fluorescence activation. The conditions noted are these: 125 mM KCl, 1 mM MgCl2; 1x TB assembly buffer; EC50 given as N/A; titration to 2 µM.

Assay [2] has as its system Spinach construct (RNA, aptamer) GGGAGAUGCUCCCAGUUACAUUCGUGUAGCUGGCCGUGCGGUAAGGACGGGUCCCUAGCUAAUUCGUUAGUUAGGUUGAGUAGAGUGUGAGACCGUACGGGCUGGUGAAGCCUCCACGCCAGCGAGCGUCUCCCGCAUGGCAACGCGACUGAAGGAGGCACGGUCGGCCAUCGGUUUCGACCGGUGGCGGUAGAGCCUUCGGGCUUUACCCGUUGUCAUGC
Put plainly: fluorescence titration of RNA with fluorophore. The conditions noted are these: 125 mM KCl, 1 mM MgCl2, 1x TB assembly buffer, 20 nM RNA, apparent.

In assay [3] the test system is Broccoli construct (RNA, aptamer) GGGAGAUGCUCCCAGUUACAUUCGUGUAGCUGGCCGUGCGAGACGGUCGGGUCCAUAGCUAAUUCGUUAGUUAUGUCGAGUAGAGUGUGGGCUCGUACGGGCUGGUGAAGCCUCCACGCCAGCGAGCGUCUCCCGCAUGGCAACGCGACUGAAGGAGGCACGGUCGGCCAUCGGUUUCGACCGGUGGCGGUAGAGCCUUCGGGCUUUACCCGUUGUCAUGC
Nature of the assay: fluorescence titration of RNA with fluorophore. The conditions noted are these: 125 mM KCl, 1 mM MgCl2; 1x TB assembly buffer; 20 nM RNA; fluorophore 1 nM to 2 µM; apparent.

Assay [4] relates to 2H-AE construct (RNA, other) GGAAUUCAGGAGCUCGGGAGCGUCCACUGCUCCUGAGCGCUCCAGUGGACGGAGCCCUGGUGAAGCCUCCACGCCAGGUCCUGGAUUCCGCAUGUAUCGAGGACUGAAGGAGGCACGGUCCCACGGGCUCCGAGACGUGGAGUCCGUGUCCGCACGUCUCGCGGAUCGAUGCAUGC
Put plainly: fluorescence activation. The conditions noted are these: 125 mM KCl, 1 mM MgCl2; 1x TB assembly buffer; no fluorescence activation.

In assay [5] the test system is Mango construct (RNA, aptamer) GGGAGAUCGUCCUAAGCGCUUUCGAGCGUUUAGCCUGGGUCGCGAAGGGACGGUGCGGAGAGGAGAGCGACUCAGGGAUGGUGAAGCCUCCACGCCAUCGACGGUCUCCCGAUACUCAUCGCGACUGAAGGAGGCACGGUCGGCAUUGUACUUCGGUACGAUGCGCAAGCGACUUCGGUCGUUUGCCGAUGGGUAUC
Nature of the assay: fluorescence titration of RNA with fluorophore. The conditions noted are these: 125 mM KCl, 1 mM MgCl2; 1x TB assembly buffer; 20 nM RNA; fluorophore 1 nM to 2 µM; apparent.

With `CC1=N/C(=C\c2cc(F)c(O)c(F)c2)C(=O)N1CC(F)(F)F`, the binding entry in assay [1] and in assay [4] was “no” in each case. Further, the EC50 is 0.3375 µM in assay [2] (fluorophore 1 nM to 2 µM) and 0.5989 µM in assay [3].
Consider `CN1C=CC(=CC=Cc2oc3ccccc3[n+]2CC(=O)NCCOCCOCCOCCNC(=O)CCCC[C@@H]2SC[C@@H]3NC(=O)N[C@@H]32)c2ccccc21`, for which the EC50 in assay [5] is 0.0256 µM; in assay [2] (fluorophore 1 nM to 2 µM (value above range)), 3.92 µM; in assay [3], 1.7 µM.
